Literature values, collected in patent US10335381B2, “Stabilized formulation of triamcinolone acetonide” (University of Mississippi, priority 2006, dated 2019).

Settings: Gupta 1983

CC1(C)O[C@@H]2C[C@H]3[C@@H]4CCC5=CC(=O)C=C[C@]5(C)[C@@]4(F)[C@@H](O)C[C@]3(C)[C@]2(C(=O)CO)O1 [TAA, triamcinolone acetonide]
optimum pH for TAA stability in aqueous solution: about 3.4
